# In ChEMBL document CHEMBL2429821, “A Casein kinase 1/Checkpoint kinase 1 pyrazolo-pyridine protein kinase inhibitor as novel activator of the p53 pathway” (Bioorg Med Chem Lett, 2013):
# Columns and labels:
# [1] = target: Ribosomal protein S6 kinase alpha-5 (Homo sapiens) (UniProt O75582); assay: Inhibition of human MSK1 assessed as residual activity at 10 uM relative to control
# [2] = target: Serine/threonine-protein kinase PAK 4 (Homo sapiens) (UniProt O96013); assay: Inhibition of human PAK4 assessed as residual activity at 10 uM relative to control
# Serine/threonine-protein kinase PAK 4 (Homo sapiens), sequence (O96013 whole entry, looked up): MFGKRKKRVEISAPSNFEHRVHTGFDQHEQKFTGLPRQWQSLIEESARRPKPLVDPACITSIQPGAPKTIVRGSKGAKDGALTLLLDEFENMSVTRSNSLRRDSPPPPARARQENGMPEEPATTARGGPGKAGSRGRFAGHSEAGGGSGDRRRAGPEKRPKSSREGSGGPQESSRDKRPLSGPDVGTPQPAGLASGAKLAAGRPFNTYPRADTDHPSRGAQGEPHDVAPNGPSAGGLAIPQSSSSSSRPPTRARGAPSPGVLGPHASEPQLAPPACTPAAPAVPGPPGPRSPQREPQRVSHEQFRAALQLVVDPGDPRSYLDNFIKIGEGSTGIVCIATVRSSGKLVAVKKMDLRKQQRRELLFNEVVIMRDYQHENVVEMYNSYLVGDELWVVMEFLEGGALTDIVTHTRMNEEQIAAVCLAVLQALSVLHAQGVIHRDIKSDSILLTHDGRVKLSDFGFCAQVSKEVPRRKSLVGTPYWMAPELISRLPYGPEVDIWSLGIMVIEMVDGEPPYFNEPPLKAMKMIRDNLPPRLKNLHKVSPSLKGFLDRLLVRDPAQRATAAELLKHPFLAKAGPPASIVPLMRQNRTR
# [3] = target: Protein kinase C alpha type (Homo sapiens) (UniProt P17252); assay: Inhibition of human PKCalpha assessed as residual activity at 1 uM relative to control
# [4] = target: T1, Serine/threonine-protein kinase Nek2 (Homo sapiens) (UniProt P51955); assay: Inhibition of human NEK2alpha assessed as residual activity at 1 uM relative to control
# T1 sequence (whole entry): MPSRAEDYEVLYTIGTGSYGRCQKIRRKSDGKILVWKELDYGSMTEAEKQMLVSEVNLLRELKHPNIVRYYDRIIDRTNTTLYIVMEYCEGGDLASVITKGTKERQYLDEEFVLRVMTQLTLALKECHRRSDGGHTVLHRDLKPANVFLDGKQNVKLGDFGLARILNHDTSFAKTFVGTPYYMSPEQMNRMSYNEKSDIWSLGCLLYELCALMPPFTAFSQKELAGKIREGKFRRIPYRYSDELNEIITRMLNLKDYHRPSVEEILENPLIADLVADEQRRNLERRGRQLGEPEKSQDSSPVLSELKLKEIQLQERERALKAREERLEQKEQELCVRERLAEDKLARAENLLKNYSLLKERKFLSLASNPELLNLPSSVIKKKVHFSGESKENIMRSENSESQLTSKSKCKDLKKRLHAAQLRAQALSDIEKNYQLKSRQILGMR
# [5] = target: T2, MAP kinase-activated protein kinase 5 (Homo sapiens) (UniProt Q8IW41); assay: Inhibition of human PRAK assessed as residual activity at 1 uM relative to control
# T2 sequence (whole entry): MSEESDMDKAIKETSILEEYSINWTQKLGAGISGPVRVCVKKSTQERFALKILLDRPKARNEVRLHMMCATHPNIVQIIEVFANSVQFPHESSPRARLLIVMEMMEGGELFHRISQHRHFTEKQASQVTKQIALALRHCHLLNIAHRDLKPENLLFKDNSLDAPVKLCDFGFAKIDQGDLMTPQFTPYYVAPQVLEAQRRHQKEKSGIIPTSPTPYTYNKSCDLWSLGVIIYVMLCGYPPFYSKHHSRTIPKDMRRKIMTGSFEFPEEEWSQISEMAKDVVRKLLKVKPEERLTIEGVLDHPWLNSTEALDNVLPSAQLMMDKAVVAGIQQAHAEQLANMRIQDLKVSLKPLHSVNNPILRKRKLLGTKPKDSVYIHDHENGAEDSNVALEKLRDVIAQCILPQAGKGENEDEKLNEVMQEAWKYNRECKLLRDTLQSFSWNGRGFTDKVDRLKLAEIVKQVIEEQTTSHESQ
# [6] = target: T1, Serine/threonine-protein kinase Nek2 (Homo sapiens); assay: Inhibition of human NEK2alpha assessed as residual activity at 10 uM relative to control
# [7] = target: Casein kinase I isoform delta (Rattus norvegicus) (UniProt Q06486); assay: Inhibition of rat CK1delta assessed as residual activity at 1 uM relative to control
# Casein kinase I isoform delta (Rattus norvegicus), sequence (Q06486 whole entry, looked up, canonical isoform): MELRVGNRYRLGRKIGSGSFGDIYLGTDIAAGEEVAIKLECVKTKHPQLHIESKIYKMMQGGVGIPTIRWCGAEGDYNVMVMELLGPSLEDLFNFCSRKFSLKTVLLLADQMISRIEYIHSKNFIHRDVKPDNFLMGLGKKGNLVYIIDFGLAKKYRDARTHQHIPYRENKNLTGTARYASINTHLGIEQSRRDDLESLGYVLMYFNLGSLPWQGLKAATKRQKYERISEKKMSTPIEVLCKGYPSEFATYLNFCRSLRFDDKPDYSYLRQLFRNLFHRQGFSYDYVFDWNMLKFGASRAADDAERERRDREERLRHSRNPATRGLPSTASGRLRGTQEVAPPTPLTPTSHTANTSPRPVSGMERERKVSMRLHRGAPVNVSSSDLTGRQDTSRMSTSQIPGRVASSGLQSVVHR
# [8] = target: Protein kinase C alpha type (Homo sapiens) (UniProt P17252); assay: Inhibition of human PKCalpha assessed as residual activity at 10 uM relative to control
# [9] = target: Myosin light chain kinase, smooth muscle (Homo sapiens) (UniProt Q15746); assay: Inhibition of human smMLCK assessed as residual activity at 1 uM relative to control
# [10] = target: Tyrosine-protein kinase Yes (Homo sapiens) (UniProt P07947); assay: Inhibition of human YES1 assessed as residual activity at 10 uM relative to control
# Tyrosine-protein kinase Yes (Homo sapiens), sequence (P07947 2-543 limits assumed): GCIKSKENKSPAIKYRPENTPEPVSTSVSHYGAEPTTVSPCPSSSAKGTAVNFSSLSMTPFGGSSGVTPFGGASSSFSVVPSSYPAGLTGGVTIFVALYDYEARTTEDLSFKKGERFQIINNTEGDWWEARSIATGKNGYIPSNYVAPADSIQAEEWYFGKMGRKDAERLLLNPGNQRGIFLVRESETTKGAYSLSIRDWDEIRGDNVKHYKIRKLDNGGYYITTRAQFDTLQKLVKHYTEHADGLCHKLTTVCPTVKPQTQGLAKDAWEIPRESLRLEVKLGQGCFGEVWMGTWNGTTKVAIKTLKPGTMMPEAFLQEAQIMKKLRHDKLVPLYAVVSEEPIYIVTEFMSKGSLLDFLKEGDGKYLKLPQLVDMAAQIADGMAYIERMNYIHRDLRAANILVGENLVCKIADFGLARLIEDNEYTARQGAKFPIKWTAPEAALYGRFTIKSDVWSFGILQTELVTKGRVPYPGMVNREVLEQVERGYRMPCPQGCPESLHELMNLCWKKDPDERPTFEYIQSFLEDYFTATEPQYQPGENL
# [11] = target: Serine/threonine-protein kinase pim-1 (Homo sapiens) (UniProt P11309); assay: Inhibition of human PIM1 assessed as residual activity at 10 uM relative to control
# Serine/threonine-protein kinase pim-1 (Homo sapiens), sequence (P11309 whole entry, looked up): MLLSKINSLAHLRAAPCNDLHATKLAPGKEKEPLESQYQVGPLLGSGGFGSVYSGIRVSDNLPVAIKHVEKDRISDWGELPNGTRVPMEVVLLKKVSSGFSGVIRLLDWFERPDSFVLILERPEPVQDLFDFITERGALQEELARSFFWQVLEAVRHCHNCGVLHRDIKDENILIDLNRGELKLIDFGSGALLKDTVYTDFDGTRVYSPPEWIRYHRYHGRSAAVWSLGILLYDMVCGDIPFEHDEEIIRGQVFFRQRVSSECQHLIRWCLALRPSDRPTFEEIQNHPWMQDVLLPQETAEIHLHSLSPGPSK
# [12] = target: RAC-beta serine/threonine-protein kinase (Homo sapiens) (UniProt P31751); assay: Inhibition of human PKBbeta assessed as residual activity at 10 uM relative to control
# RAC-beta serine/threonine-protein kinase (Homo sapiens), sequence (P31751 whole entry): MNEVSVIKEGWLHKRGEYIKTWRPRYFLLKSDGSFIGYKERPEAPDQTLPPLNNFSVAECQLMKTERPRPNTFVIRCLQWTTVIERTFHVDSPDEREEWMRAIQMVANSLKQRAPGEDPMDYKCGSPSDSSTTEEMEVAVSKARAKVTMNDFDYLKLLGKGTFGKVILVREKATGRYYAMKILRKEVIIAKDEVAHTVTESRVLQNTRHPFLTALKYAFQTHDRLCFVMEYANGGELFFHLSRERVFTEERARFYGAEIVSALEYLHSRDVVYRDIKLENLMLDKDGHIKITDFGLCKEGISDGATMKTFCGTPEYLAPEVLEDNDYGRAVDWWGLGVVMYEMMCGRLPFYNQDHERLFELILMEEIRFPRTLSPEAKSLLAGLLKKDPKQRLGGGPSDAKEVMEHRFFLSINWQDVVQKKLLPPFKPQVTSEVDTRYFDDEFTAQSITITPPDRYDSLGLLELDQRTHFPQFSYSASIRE
# [13] = target: Serine/threonine-protein kinase PLK1 (Homo sapiens) (UniProt P53350); assay: Inhibition of human PLK1 assessed as residual activity at 10 uM relative to control
# Serine/threonine-protein kinase PLK1 (Homo sapiens), sequence (P53350 whole entry): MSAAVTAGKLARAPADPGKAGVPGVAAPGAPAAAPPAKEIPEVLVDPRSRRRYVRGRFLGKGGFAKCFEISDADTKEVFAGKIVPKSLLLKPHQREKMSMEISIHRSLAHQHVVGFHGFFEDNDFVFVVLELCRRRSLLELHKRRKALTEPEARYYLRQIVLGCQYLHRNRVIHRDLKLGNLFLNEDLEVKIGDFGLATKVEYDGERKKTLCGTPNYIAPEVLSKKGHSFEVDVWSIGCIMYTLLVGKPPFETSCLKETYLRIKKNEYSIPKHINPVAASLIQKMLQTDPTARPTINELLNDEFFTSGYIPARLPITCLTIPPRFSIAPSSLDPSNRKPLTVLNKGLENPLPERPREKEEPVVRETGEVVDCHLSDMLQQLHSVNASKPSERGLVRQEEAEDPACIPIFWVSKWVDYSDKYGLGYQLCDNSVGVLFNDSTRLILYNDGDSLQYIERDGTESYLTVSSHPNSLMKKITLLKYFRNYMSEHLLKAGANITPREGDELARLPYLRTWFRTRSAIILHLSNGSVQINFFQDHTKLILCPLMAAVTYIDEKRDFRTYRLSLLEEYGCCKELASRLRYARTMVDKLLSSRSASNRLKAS
# [14] = target: T3, Serine/threonine-protein kinase Chk1 (Homo sapiens) (UniProt O14757); assay: Inhibition of human CHK1 assessed as residual activity at 10 uM relative to control
# T3 sequence (whole entry): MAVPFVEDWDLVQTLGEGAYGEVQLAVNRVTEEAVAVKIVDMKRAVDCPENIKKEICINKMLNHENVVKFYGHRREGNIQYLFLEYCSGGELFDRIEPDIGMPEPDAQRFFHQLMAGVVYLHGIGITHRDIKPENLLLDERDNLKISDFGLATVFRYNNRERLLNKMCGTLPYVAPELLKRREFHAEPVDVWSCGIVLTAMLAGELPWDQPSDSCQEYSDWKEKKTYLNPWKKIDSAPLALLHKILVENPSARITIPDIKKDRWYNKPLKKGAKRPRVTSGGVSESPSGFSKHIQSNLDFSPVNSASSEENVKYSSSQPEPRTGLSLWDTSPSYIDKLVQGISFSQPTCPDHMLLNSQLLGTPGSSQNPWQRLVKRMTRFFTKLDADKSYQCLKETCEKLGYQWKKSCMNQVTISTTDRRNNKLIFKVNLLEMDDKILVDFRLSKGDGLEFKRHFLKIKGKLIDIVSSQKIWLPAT
# [15] = target: Myosin light chain kinase, smooth muscle (Homo sapiens) (UniProt Q15746); assay: Inhibition of human smMLCK assessed as residual activity at 10 uM relative to control
# [16] = target: Homeodomain-interacting protein kinase 2 (Homo sapiens) (UniProt Q9H2X6); assay: Inhibition of human HIPK2 assessed as residual activity at 1 uM relative to control
# Homeodomain-interacting protein kinase 2 (Homo sapiens), sequence (Q9H2X6 whole entry, looked up): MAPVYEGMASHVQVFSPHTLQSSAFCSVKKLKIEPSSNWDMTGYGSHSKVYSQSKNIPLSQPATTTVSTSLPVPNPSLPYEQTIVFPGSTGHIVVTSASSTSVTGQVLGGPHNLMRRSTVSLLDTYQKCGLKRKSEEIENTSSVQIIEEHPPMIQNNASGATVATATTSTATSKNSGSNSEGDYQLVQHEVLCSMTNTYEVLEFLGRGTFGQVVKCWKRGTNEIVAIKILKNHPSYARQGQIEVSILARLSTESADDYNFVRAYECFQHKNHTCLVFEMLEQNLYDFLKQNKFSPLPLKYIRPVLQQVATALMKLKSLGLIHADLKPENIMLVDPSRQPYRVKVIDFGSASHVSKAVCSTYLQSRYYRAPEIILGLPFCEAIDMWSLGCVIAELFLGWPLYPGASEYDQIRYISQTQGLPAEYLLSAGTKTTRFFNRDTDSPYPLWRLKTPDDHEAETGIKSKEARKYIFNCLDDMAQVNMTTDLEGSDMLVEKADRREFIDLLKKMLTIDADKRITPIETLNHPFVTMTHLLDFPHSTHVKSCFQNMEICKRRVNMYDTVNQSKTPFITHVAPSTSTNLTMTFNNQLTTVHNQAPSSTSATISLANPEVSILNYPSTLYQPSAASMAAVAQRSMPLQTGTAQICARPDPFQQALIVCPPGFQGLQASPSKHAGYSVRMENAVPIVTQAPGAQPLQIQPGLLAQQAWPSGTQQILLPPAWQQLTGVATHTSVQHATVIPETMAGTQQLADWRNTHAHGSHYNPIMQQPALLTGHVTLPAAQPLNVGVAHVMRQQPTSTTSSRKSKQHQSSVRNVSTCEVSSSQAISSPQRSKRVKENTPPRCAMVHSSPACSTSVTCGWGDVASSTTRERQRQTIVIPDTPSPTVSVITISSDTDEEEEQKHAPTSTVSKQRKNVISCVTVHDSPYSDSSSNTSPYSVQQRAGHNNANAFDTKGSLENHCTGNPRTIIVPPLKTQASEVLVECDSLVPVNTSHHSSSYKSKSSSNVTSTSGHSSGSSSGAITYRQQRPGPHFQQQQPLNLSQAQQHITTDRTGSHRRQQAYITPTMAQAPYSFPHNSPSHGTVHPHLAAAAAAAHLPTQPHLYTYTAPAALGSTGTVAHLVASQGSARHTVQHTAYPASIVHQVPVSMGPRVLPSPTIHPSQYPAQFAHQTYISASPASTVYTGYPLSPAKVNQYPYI
# [17] = target: T3, Serine/threonine-protein kinase Chk1 (Homo sapiens); assay: Inhibition of human CHK1 assessed as residual activity at 1 uM relative to control
# Ribosomal protein S6 kinase alpha-5 (Homo sapiens), sequence (O75582 whole entry, looked up): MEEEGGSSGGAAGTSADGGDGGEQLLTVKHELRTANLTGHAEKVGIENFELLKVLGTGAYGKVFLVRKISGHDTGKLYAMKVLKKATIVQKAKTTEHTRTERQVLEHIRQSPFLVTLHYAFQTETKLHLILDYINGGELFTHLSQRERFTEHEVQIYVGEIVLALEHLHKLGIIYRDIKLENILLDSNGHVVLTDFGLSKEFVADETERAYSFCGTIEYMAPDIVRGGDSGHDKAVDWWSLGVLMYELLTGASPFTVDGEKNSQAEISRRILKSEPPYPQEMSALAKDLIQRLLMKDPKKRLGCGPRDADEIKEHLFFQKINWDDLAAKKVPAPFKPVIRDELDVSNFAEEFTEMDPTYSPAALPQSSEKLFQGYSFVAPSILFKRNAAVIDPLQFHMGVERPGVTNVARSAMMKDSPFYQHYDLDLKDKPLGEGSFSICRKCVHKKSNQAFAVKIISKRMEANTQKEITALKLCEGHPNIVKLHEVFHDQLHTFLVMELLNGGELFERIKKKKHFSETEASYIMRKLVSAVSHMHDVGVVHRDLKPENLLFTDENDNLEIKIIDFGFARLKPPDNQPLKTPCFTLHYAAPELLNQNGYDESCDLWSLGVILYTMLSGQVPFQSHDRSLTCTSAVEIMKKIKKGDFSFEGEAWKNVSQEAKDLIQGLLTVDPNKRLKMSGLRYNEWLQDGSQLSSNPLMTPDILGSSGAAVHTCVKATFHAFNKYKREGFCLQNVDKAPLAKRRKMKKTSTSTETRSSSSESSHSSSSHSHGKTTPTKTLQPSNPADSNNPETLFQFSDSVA
Activity [1],Activity [2],Activity [3],Activity [4],Activity [5],Activity [6],Activity [7],Activity [8],Activity [9],Activity [10],Activity [11],Activity [12],Activity [13],Activity [14],Activity [15],Activity [16],Activity [17],Compound
78%,79%,79%,97%,82%,90%,73%,81%,87%,54%,53%,91%,80%,82%,62%,72%,92%,CCCC(=O)Nc1n[nH]c2ncc(-c3cccnc3)cc12
67.1%,106%,94%,85.8%,82.4%,82.7%,44.4%,99.9%,80.4%,78.2%,88.9%,84%,81.6%,105%,79.3%,98.9%,80.6%,CC(=O)Nc1nccc(-c2c(-c3ccccc3)noc2C)n1
63.5%,51.9%,124%,53.5%,94.5%,10.5%,32.7%,104%,72.9%,56.9%,28.2%,94%,95.5%,4.34%,45.6%,72%,31.5%,CC(=O)Nc1cccc(-c2cnc3[nH]nc(C)c3c2)c1
